Measured values: ChEMBL document CHEMBL5154930, “Design, Synthesis, and Biological Evaluations of DOT1L Peptide Mimetics Targeting the Protein-Protein Interactions between DOT1L and MLL-AF9/MLL-ENL” (J Med Chem, 2022)
The source made the active and inactive calls. No cut-off for these calls is given here. Non-standard residues stand in square brackets, D forms with d. Residues, ends and D or L forms follow the SMILES beside them. *: point of attachment. X1 = C[C@H](N*)c1nc2cccc(-c3ccccc3)c2[nH]1; Ala(cPent) = N[C@@H](CC1CCCC1)C(=O)O; Pentanoyl(4-Me) = CC(C)CCC(=O)*; Dap(Me) = CNC[C@H](N)C(=O)O

Assays:
MOLM-13 [1] = test: Inhibition of methylation of H3K79 in human MOLM-13 cells assessed as inhibition of methylation at HOXA1 gene cluster by chromatin immunoprecipitation assay; type: functional, cell-based
MOLM-13 [2] = test: cells; settings: Homo sapiens, MOLM-13, 96 h
Description: Anticancer activity against human MOLM-13 cells harbouring MLL-AF9 assessed as inhibition of cell growth treated for 4 days measured by CCK-8 kit method

MOLM-13 [3] = test: Down regulation of HOXA5 gene in human MOLM-13 cells by RNA-sequencing analysis; type: functional, cell-based
[4] = target: T1, Protein AF-9 (Homo sapiens) (UniProt P42568); test: Binding affinity to AF9 in human MOLM-13 cells assessed as thermal stabilization of protein at 55 degree Celsius for 12 hrs by CETSA; type: cell-based; settings: dose <= 4.0 µM, DDE = dose-dependent effect
T1 sequence (whole entry): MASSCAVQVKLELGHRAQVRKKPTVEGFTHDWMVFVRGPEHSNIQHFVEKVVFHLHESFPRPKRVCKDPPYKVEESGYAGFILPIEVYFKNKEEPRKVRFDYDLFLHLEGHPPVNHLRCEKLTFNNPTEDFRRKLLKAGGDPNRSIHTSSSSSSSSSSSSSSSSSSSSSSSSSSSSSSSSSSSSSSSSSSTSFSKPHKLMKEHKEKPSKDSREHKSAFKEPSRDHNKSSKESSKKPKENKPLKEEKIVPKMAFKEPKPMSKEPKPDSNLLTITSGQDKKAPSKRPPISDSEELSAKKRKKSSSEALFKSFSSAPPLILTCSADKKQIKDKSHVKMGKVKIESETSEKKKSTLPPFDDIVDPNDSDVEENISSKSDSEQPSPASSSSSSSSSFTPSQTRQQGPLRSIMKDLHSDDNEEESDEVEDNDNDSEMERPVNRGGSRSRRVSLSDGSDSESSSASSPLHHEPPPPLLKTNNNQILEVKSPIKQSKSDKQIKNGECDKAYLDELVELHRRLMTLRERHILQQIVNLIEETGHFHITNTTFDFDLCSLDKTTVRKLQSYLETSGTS

[5] = Apparent permeability across apical to basolateral side in human Caco-2 cells; type: ADME, cell-based
MOLM-13 [6] = test: Down regulation of CDK1 gene in human MOLM-13 cells by RNA-sequencing analysis; type: functional, cell-based
MOLM-13 [7] = test: Down regulation of MCM2 gene in human MOLM-13 cells by RNA-sequencing analysis; type: functional, cell-based
MOLM-13 [8] = test: cells; settings: Homo sapiens, MOLM-13, 192 h
Description: Anticancer activity against human MOLM-13 cells harbouring MLL-AF9 assessed as inhibition of cell growth treated for 8 days measured by CCK-8 kit method

MOLM-13 [9] = test: Inhibition of methylation of H3K79 in human MOLM-13 cells assessed as inhibition of methylation at HOXA11 gene cluster by chromatin immunoprecipitation assay; type: functional, cell-based
MOLM-13 [10] = test: Down regulation of HOXA9 gene in human MOLM-13 cells by RNA-sequencing analysis; type: functional, cell-based
[11] = Stability in human plasma assessed as compound remaining measured upto 1440 mins by HPLC analysis; type: ADME, cell-free; settings: read-out: Stability
K562 = test: Anticancer activity against human K562 cells assessed as inhibition of cell growth treated for 8 days measured by CCK-8 kit method; type: functional, cell-based; settings: K562, 192 h
MOLM-13 [12] = test: Down regulation of CDKN1B gene in human MOLM-13 cells by RNA-sequencing analysis; type: functional, cell-based
MOLM-13 [13] = test: Down regulation of PBX3 gene in human MOLM-13 cells by RNA-sequencing analysis; type: functional, cell-based
MOLM-13 [14] = test: Down regulation of ARID2 gene in human MOLM-13 cells by RNA-sequencing analysis; type: functional, cell-based
MOLM-13 [15] = test: Down regulation of AC011043.1 gene in human MOLM-13 cells by RNA-sequencing analysis; type: functional, cell-based
MOLM-13 [16] = test: Down regulation of HOXA3 gene in human MOLM-13 cells by RNA-sequencing analysis; type: functional, cell-based
RS4-11 = test: Anticancer activity against human RS4-11 cells assessed as inhibition of cell growth treated for 8 days measured by CCK-8 kit method; type: functional, cell-based; settings: RS4-11, 192 h
MOLM-13 [17] = test: Down regulation of DCUN1D1 gene in human MOLM-13 cells by RNA-sequencing analysis; type: functional, cell-based
MOLM-13 [18] = test: cells; settings: Homo sapiens, MOLM-13, 144 h
Description: Anticancer activity against human MOLM-13 cells harbouring MLL-AF9 assessed as inhibition of cell growth treated for 6 days measured by CCK-8 kit method

Protein AF-9 = target: T2, Protein AF-9 (Homo sapiens, UniProt P42568); test: Binding affinity to MBP-tagged human recombinant AF9 (487 to 568 residues) incubated for 40 mins by measuring fluorescence polarization by microplate reader method
T2 sequence (P42568 whole entry): T1 sequence (whole entry)

MV4-11 = test: Anticancer activity against human MV4-11 cells assessed as inhibition of cell growth treated for 8 days measured by CCK-8 kit method; type: functional, cell-based; settings: MV4-11, 192 h
MOLM-13 [19] = test: Induction of apoptosis in human MOLM-13 cells treated for 7 days by Annexin V-FITC/PI staining based flow cytometry analysis; type: functional, cell-based; settings: dose 0.25-1 µM, time 7.0 day
MOLM-13 [20] = test: Inhibition of methylation of H3K79 in human MOLM-13 cells assessed as inhibition of methylation at HOXA10 gene cluster by chromatin immunoprecipitation assay; type: functional, cell-based
MOLM-13 [21] = test: Down regulation of SSBP2 gene in human MOLM-13 cells by RNA-sequencing analysis; type: functional, cell-based
MOLM-13 [22] = test: Down regulation of HOXA10 gene in human MOLM-13 cells by RNA-sequencing analysis; type: functional, cell-based
MOLM-13 [23] = test: Down regulation of […] gene in human MOLM-13 cells by RNA-sequencing analysis; type: functional, cell-based
MOLM-13 [24] = test: Down regulation of CDK6 gene in human MOLM-13 cells by RNA-sequencing analysis; type: functional, cell-based
MOLM-13 [25] = test: Inhibition of methylation of H3K79 in human MOLM-13 cells assessed as inhibition of methylation at MEIS1-AS3 gene cluster by chromatin immunoprecipitation assay; type: functional, cell-based
MOLM-13 [26] = test: Down regulation of JMJD1C gene in human MOLM-13 cells by RNA-sequencing analysis; type: functional, cell-based
MOLM-13 [27] = test: Down regulation of HPGD gene in human MOLM-13 cells by RNA-sequencing analysis; type: functional, cell-based
MOLM-13 [28] = test: Down regulation of MEIS1 gene in human MOLM-13 cells by RNA-sequencing analysis; type: functional, cell-based
[29] = target: T1, Protein AF-9 (Homo sapiens); test: Binding affinity to AF9 in human MOLM-13 cells assessed as thermal stabilization of protein at 60 degree Celsius at 1 uM for 12 hrs by CETSA; type: cell-based
MOLM-13 [30] = test: Induction of apoptosis in human MOLM-13 cells at 0.25 to 1 uM by Annexin V-FITC/PI staining based flow cytometry analysis; type: functional, cell-based; settings: dose 0.25-1 µM, time 5-9 day, TDE = time-dependent effect
KOPN-8 = test: cells; settings: Homo sapiens, KOPN-8, 192 h
Description: Anticancer activity against human KOPN-8 cells harbouring MLL-ENL assessed as inhibition of cell growth treated for 8 days measured by CCK-8 kit method

MOLM-13 [31] = test: Inhibition of methylation of H3K79 in human MOLM-13 cells assessed as inhibition of methylation at HOXA4 gene cluster by chromatin immunoprecipitation assay; type: functional, cell-based
MOLM-13 [32] = test: Down regulation of CNOT6L gene in human MOLM-13 cells by RNA-sequencing analysis; type: functional, cell-based
MOLM-13 [33] = test: Inhibition of methylation of H3K79 in human MOLM-13 cells assessed as inhibition of methylation at HOXA6 gene cluster by chromatin immunoprecipitation assay; type: functional, cell-based
MOLM-13 [34] = test: Down regulation of SKP2 gene in human MOLM-13 cells by RNA-sequencing analysis; type: functional, cell-based

For `CNC[C@H](NC(=O)[C@@H](NC(=O)[C@@H]1CCCN1C(=O)CCC(C)C)C(C)C)C(=O)N[C@@H](CC1CCCC1)C(=O)N[C@@H](C)c1nc2cccc(-c3ccccc3)c2[nH]1` ({Pentanoyl(4-Me)}-PV[Dap(Me)][Ala(cPent)]-X1), the inhibition (MOLM-13 [1]) was “Active”, the IC50 (MOLM-13 [2]) was 972 nM and the Activity (MOLM-13 [3]) was “Active”. For the same compound, the Activity [4] was “Dde”, the Papp A→B [5] was 1.97 ×10⁻⁶ cm/s and the Activity (MOLM-13 [6]) was “Active”. For the same compound, the Activity (MOLM-13 [7]) was “Active”, the IC50 (MOLM-13 [8]) was 70 nM and the inhibition (MOLM-13 [9]) was “Active”. The Activity (MOLM-13 [10]) was “Active”, the remaining at 24 h [11] was 81.5% and the IC50 (K562) was 59000 nM. The Activity (MOLM-13 [12]) was “Active”, the Activity (MOLM-13 [13]) was “Active” and the Activity (MOLM-13 [14]) was “Active”. The Activity (MOLM-13 [15]) was “Active”, the Activity (MOLM-13 [16]) was “Active” and the IC50 (RS4-11) was 240 nM. For the same compound, the Activity (MOLM-13 [17]) was “Active”, the IC50 (MOLM-13 [18]) was 382 nM and the Ki (Protein AF-9) was 9 nM. The IC50 (MV4-11) was 220 nM, the Activity (MOLM-13 [19]) was “Active” and the inhibition (MOLM-13 [20]) was “Active”. The Activity (MOLM-13 [21]) was “Active”, the Activity (MOLM-13 [22]) was “Active” and the Activity (MOLM-13 [23]) was “Active”. The Activity (MOLM-13 [24]) was “Active”, the inhibition (MOLM-13 [25]) was “Active” and the Activity (MOLM-13 [26]) was “Active”. For the same compound, the Activity (MOLM-13 [27]) was “Active”, the Activity (MOLM-13 [28]) was “Active” and the Activity [29] was “Active”. The Activity (MOLM-13 [30]) was “Tde”, the IC50 (KOPN-8) was 100 nM and the inhibition (MOLM-13 [31]) was “Active”. The Activity (MOLM-13 [32]) was “Active”, the inhibition (MOLM-13 [33]) was “Active” and the Activity (MOLM-13 [34]) was “Active”.
